Measurements as given in the NIST ThermoML archive (doi:10.1016/j.fluid.2008.09.004).

What was measured:
[1] = 101.33 kPa, Liquid; for mass density: Vibrating tube method; for speed of sound: Sing-around technique in a fixed-path interferometer
[2] = molar heat capacity at constant pressure; details: 101.33 kPa, Liquid, Small sample (50 mg) DSC
[3] = excess molar enthalpy (molar enthalpy of mixing); xn = mol fraction of the nth substance listed; details: 303.15 K, 101 kPa, Liquid, Calvet calorimetry

CCCCn1cc[n+](C)c1.COS(=O)(=O)[O-] [1-butyl-3-methylimidazolium methyl sulfate]
Details	mass density, [1] [kg/m3]	molar heat capacity at constant pressure, [2] [J/K/mol]
293.15 K	1210.7	413.7
298.15 K	1207.4	416.2
303.15 K	1204.1	418.5
308.15 K	1200.8	420.9
313.15 K	1197.5	423.3
318.15 K	1194.2	425.6

CCCCn1cc[n+](C)c1.F[B-](F)(F)F [1-butyl-3-methylimidazolium tetrafluoroborate]
Details	mass density, [1] [kg/m3]	molar heat capacity at constant pressure, [2] [J/K/mol]
293.15 K	1207.6	359.8
298.15 K	1204.1	363.1
303.15 K	1200.5	366.1
308.15 K	1197	368.7
313.15 K	1193.4	371
318.15 K	1189.9	372.9

CCCCn1cc[n+](C)c1.O=S(=O)([O-])C(F)(F)F [1-butyl-3-methylimidazolium trifluoromethanesulfonate]
Details	mass density, [1] [kg/m3]	molar heat capacity at constant pressure, [2] [J/K/mol]	speed of sound, [1] [m/s]
293.15 K	1301.6	421.6	1403.4
298.15 K	1297.6	424.1	1392.1
303.15 K	1293.7	426.7	1380.9
308.15 K	1289.7	429.5	1369.8
313.15 K	1285.8	432.4	1358.8
318.15 K	1281.9	435.5	1348.1

CCCC[n+]1cccc(C)c1.F[B-](F)(F)F [1-butyl-3-methylpyridinium tetrafluoroborate]
[1]
Details	speed of sound [m/s]
293.15 K	1599.8
298.15 K	1587
303.15 K	1574.8
308.15 K	1562.6
313.15 K	1550.7
318.15 K	1538.9

CCCC[n+]1cccc(C)c1.F[B-](F)(F)F [1-butyl-3-methylpyridinium tetrafluoroborate] + CCO
[3]
Details	excess molar enthalpy [kcal/mol]
x1 = 0.0306	0.132
x1 = 0.1031	0.324
x1 = 0.1976	0.483
x1 = 0.3036	0.588
x1 = 0.3966	0.621
x1 = 0.5083	0.596
x1 = 0.6001	0.535
x1 = 0.692	0.45
x1 = 0.8061	0.301
x1 = 0.8847	0.187

CCOS(=O)(=O)[O-].CCn1cc[n+](C)c1 [1-ethyl-3-methylimidazolium ethyl sulfate]
Details	mass density, [1] [kg/m3]	molar heat capacity at constant pressure, [2] [J/K/mol]
293.15 K	1240.6	392.2
298.15 K	1237.2	394.4
303.15 K	1233.8	396.8
308.15 K	1230.4	399.3
313.15 K	1227	402
318.15 K	1223.7	404.9

CCn1cc[n+](C)c1.O=S(=O)([O-])C(F)(F)F [1-ethyl-3-methylimidazolium trifluoromethanesulfonate]
Details	mass density, [1] [kg/m3]	molar heat capacity at constant pressure, [2] [J/K/mol]
293.15 K	1389.5	361.1
298.15 K	1385.3	363.2
303.15 K	1381.1	365.3
308.15 K	1376.9	367.4
313.15 K	1372.7	369.6
318.15 K	1368.6	371.8

CCCCCCn1cc[n+](C)c1.F[B-](F)(F)F [1-hexyl-3-methylimidazolium tetrafluoroborate]
Details	mass density, [1] [kg/m3]	molar heat capacity at constant pressure, [2] [J/K/mol]	speed of sound, [1] [m/s]
293.15 K	1148.8	425.1	1532.7
298.15 K	1145.3	427.8	1519.5
303.15 K	1141.8	430.4	1506.9
308.15 K	1138.4	433	1494.5
313.15 K	1135	435.5	1482.3
318.15 K	1131.6	438.1	1470.5

CCO [ethanol]
Details	mass density, [1] [kg/m3]	molar heat capacity at constant pressure, [2] [J/K/mol]	speed of sound, [1] [m/s]
293.15 K	789.6	111.3	1159.5
298.15 K	785.3	113.3	1142.5
303.15 K	781	115.3	1125.5
308.15 K	776.7	117.5	1108.6
313.15 K	772.3	119.7	1091.8
318.15 K	767.8	122.1	1075.1
